From patent US9593146B2, “CD44v6-derived peptides for treating metastasizing cancer” (AMCURE GMBH, priority 2012, dated 2017)

Tests used:
[1] = tested on: BSp73ASs6 cells; test: Apoptosis in established lung metastases (cleaved Caspase-3, cleaved Caspase-8), BSp73ASs6 rat model; assay type: in vivo; settings: injection every second day
Protocol: 7 μm thick paraffin sections were deparaffinized and rehydrated. For P-Met staining antigen unmasking was achieved by boiling the slides in 1 mM EDTA pH 8.0 followed by incubation for 15 minutes at a sub-boiling temperature, for CD31 staining the sections were treated with Proteinase K (8 μg/ml) for 10 min at 37° C. For immunofluorescence staining of P-Met, unspecific binding was blocked with 5% goat serum (DAKO, Glostrup, Denmark) (diluted in 1×PBS/0.3% Triton X-100) for 60 minutes. In the case of immunohistochemistry, endogenous peroxidases were at first blocked with 3% H2O2 in PBS followed by incubation with biotin blocking system (Dako, Glostrup, Denmark) and then unspecific binding was inhibited by incubation with 5% FCS in PBS. The sections were incubated with the P-Met antibody (D26, dilution 1:50 in 1×PBS/1% BSA/0.3% Triton X-100), Met antibody (C-28, dilution 1:50), GFP antibody (sc-101525, dilution 1:50) or CD31 antibody (5 μg/ml) over night or VFF18 (5 μg/ml) o/n at 4° C. After washing in PBS the sections were incubated with Alexa Fluor R 546 goat anti-rabbit (in case of immunofluorescence P-Met and Met staining, dilution 1:500) or a biotinylated secondary antibody (for immunohistochemical stainings rabbit anti-rat antibody for VFF18 and CD31, goat anti-rabbit for P-Met, cleaved Caspase-3 and cleaved Caspase-8 and rabbit anti-mouse for GFP, dilution 1:500) for 45 minutes. For DAB (3,3′-diaminobenzidine) staining the sections were treated with a streptavidin-peroxidase conjugate (Dako, Glostrup, Denmark) and developed with DAB substrate system (3,3′-diaminobenzidine; Biozol, Eching, Germany). For immunofluorescence DAPI was used for nuclear staining.
One hypothesis for the disappearance of metastases is that the peptides induce apoptosis of CD44v6-expressing metastatic cells in the secondary organs. In order to test this hypothesis, the experiment described above using the BSp73ASs6 cells was repeated. The cells were injected subcutaneously in syngeneic rats and the tumor was allowed to develop for three weeks. After that time the animals were separated in two groups of 10 animals that were injected either with the specific rat CD44v6 peptide or with the control peptide (mouse) every second day. One day following each injection of the peptide, the lungs of one animal were removed and apoptosis was measured using an antibody that detects the cleaved form of Caspase 3. […] Twelve days after injection of the CD44v6 peptide, less apoptosis was observed. […] From these experiments, it is concluded that the CD44v6 peptide induces apoptosis of metastatic cells.

[2] = tested on: Met and ERK; test: HGF induced activation of Met and ERK in L3.6pl cells (Western blot); assay type: cell-based, human; settings: L3.6pl cells, peptide prior to induction with 10 ng/ml HGF
Protocol: (§1) Serum-starved cells (24 hours) were induced with the growth factor HGF (10 ng/mL) at 37° C. for 5 minutes. Where indicated, the cells were treated with peptides (100 ng/ml) prior to induction at 37° C. for 10 minutes (100 ng/mL CD44v6 peptide or control peptide). Following the induction with HGF, cells were washed with ice-cold phosphate-buffered saline (PBS). To detect activated Met and Erk, cells were lysed in sodium dodecyl sulfate (SDS)-sample buffer containing 100 mM dithiothreitol (DTT), boiled and subjected to western blot analysis using antibodies against phospho-Met and ERK. The loading controls were performed on the same blot after stripping (62.5 mM Tris, pH 6.8, 2% SDS, 0.8% DTT) by probing with the Met respectively ERK antibody. Blots were stained using the enhanced chemiluminescence system (Thermo Fisher Scientific, Schwerte, Germany). Bands in western blot analysis were quantified with the program Image J (National Institutes of Health).

[3] = tested on: L3.6pl cells; test: Human orthotopic model of pancreatic cancer, L3.6pl cells in nude mice; assay type: in vivo
Protocol: In the case of the human orthotopic model, L3.6pl pancreatic carcinoma cells (passage 24-26) were suspended in Hank's balanced salt solution (Invitrogen, Karlsruhe, Germany) after trypsinization. The cells were injected orthotopically in the pancreas of male nude mice as described (Bruns C J et al. (1999) Neoplasia 1(1):50-62). Two groups of 15 mice each were injected i.p. 7 days later with either the human v6 peptide respectively rat control peptide (20 μg). For all experiments described and depicted herein either the rat 14mer control peptide or the human 14mer peptide were used. All experiments were then repeated with the rat 5mer control peptide or the human 5mer peptide (N-R-W-H-E, SEQ ID NO: 2). […] The injection was repeated three times per week for 21 days. Two days after the last treatment the animals were killed. […]
A comparison of different CD44v6 peptide derivatives was performed in animals bearing a orthotopic L3.6pl tumor. 10 groups of 5 animals each received a dose of 20 μg peptide per injection three times per week for 3 weeks with the compounds listed in Table 4. Three weeks after starting the treatment the animals were sacrificed and analyzed for macroscopic metastases and tumor volume.

[4] = tested on: BSp73ASs6 cells; test: Rat syngeneic model, subcutaneous BSp73ASs6 tumor, metastasis formation; assay type: in vivo; settings: for metastasis (axillary lymph nodes, lungs): 200 μg per injection, intra-tumoral or intravenously three times a week, start after one week of tumor growth; for outgrowth of primary tumors / metastasis and micro-metastasis in lung sections (PAS and H&E staining): same treatment; for outgrowth of primary tumors: 28 days; for metastasis and micro-metastasis in lung sections (PAS and H&E staining): histological analysis
Protocol: In the case of the rat syngeneic model, 1×10^6 pancreatic cells (BSp73AS and its transfectants) were subcutaneously injected into the right posterior flank of the animals. Tumors developed for four weeks. During this time period animals injected with BSp73ASs6 cells expressing Met-shRNA or control-shRNA received doxycycline in the drinking water. At the end of the experiment, primary tumors were isolated. Lungs and axillary lymph nodes were analyzed. The tissues were incubated for 24 h in a zinc-fixative (0.5 g calcium acetate, 5.0 g zinc acetate, 5.0 g zinc chloride, in 1 L 0.1 M Tris pH 7.4) and embedded in paraffin for further analysis. In case of peptide or antibody treatment tumors developed for one week before the first treatment. Where indicated, animals received 200 μg of peptide or antibody per injection three times per week for four weeks. Tumor growth was monitored weekly using a caliper. Animals were killed at day 28 or 30 after start of the treatment.
For histo-morphological analysis paraffin-embedded sections of lungs were stained with hematoxylin and eosin and periodic acid-Schiff (H&E or PAS). Serial sections of the whole tissue blocks were examined by analyzing slices every 20 μm; in each slice, the presence and the extension of the metastatic deposit was assessed, according to the procedure routinely used by pathologists to evaluate the presence of micro-metastases.

[5] = tested on: 4T1 cells; test: Syngeneic orthotopic 4T1 mammary carcinoma model in BALB/c mice; assay type: in vivo; settings: 20 μg i.p. 3 times per week for two weeks
Protocol: FIG. 26: Treatment with the v6 14mer reduces growth of the primary tumor and macroscopic metastases formation in the lung. 1×10^6 murine 4T1 cells per mouse were diluted in 50 μl RPMI plus 50 μl Matrigel and injected into the 6th mammary fat pad of 10 female BALB/c mice. One week after the injection, the mice were either injected intraperitoneally with 20 μg of the murine v6 14mer dissolved in 100 μl PBS or with 20 μg of control peptide (rat v6 14mer) dissolved in 100 μl PBS. The injection was performed 3 times per week for two weeks. After 2 weeks the mice were sacrificed and the primary tumors and the lungs were extracted. A: Overall reduction of the tumor volume in the v6 peptide treated group. B: Immunofluorescent staining for the endothelial marker CD34 to monitor vascularization of the primary tumor. Graphic representation of the reduction of the total vessel area. C: The v6 peptides led to a reduction in macroscopic lung metastasis. The black arrows mark examples for metastases. The scale bar corresponds to a size of 1 cm. Statistical evaluation of the average number of lung metastases. Significance was calculated using Student's t test: p*<0.01; **p<0.005. Each group consisted of 5 animals.
The effect of the CD44v6 14mer was tested in a syngeneic mouse model by orthotopic injection of the murine mammary carcinoma cells 4T1. 4T1 cells were originally derived from a spontaneously arising BALB/c mammary tumor. When introduced orthotopically, 4T1 cells grow rapidly at the primary site and form metastases in the lung and the lymph nodes within a period of 3-6 weeks. The tumor growth and metastatic spreading of 4T1 cells in BALB/c mice very closely mimics human breast cancer stage IV.
The 4T1 cells were injected orthotopically into the 6th mammary fat pad. Two groups of 5 animals each with the implanted tumor cells were then used for the experiment. One group was treated with the v6 14mer peptide, one with a control (rat) peptide. The injection of the peptide was performed 3 times per week and planned for three to four weeks but had to be stopped after two weeks as the control group suffered from large tumors.

[6] = tested on: HT29 cells; test: HGF induced scattering of HT29 cells; assay type: cell-based, human
Protocol: FIG. 17: The human CD44 v6 specific peptides block HGF induced cell scattering and invasion into matrigel. Scattering of HT29 cells was determined in 24-well plates. First, 4.5×10^4 cells were seeded at 37° C.; after 24 h the cells were serum starved for additional 24 h. the cells were either left untreated (control) or later treated with HGF (50 ng/ml) for 24 h. Where indicated the cells were treated with the v6 specific peptide (human v6 5mer, 10mer, 14mer) or control peptide prior to induction with HGF for 30 min. Pictures were made using phase contrast microscopy. Magnification 40×.
A scatter assay was performed additionally. HT29 colon cancer cells were grown in medium containing 10% FCS. One day after seeding, the cells were starved. On the third day, the cells were induced with HGF (10 ng/ml) and pre-incubated with either no peptide, ctrl-peptides (SEQ ID No.: 15), non-pegylated v6-peptides (SEQ ID No.: 11) or the pegylated peptides, namely PEG-rat control peptide and PEG-rat CD44v6 peptide.
Scattering of HT29 cells was determined in 24-well plates. First, 4×10^5 cells were seeded at 37° C.; the cells were either left untreated or 48 h later treated with HGF (50 ng/ml) for 24 h or with PEGylated or non-PEGylated peptides (100 ng/ml) prior to HGF induction for 30 min.

[7] = tested on: Met and ERK; test: HGF induced activation of Met and Erk in BSp73ASs6 cells (Western blot); assay type: cell-based, rat; settings: ASs6 cells, peptides with 2000 dalton PEG-chain, 150 nM 10 min before HGF 10 ng/ml (FIG. 10)
Protocol: as §1
Rat pancreatic cancer cells BSp73ASs6 (also designated Ass6) were incubated for 10 min at 37° C. with either ctrl-peptides (SEQ ID No.: 15), non-pegylated v6-peptides (SEQ ID No.: 11) and increasing concentrations of the pegylated peptides, namely PEG-rat control peptide and PEG-rat CD44v6 peptide, before induction with HGF (10 ng/ml; 5 min at 37° C.).
Activation of ERK and Met was determined by standard SDS and Western Blotting techniques using a phospho-Met and phospho-Erk specific antibody (phospho-Met clone D16 cell signaling, phospho-Erk p42/44 cell signaling)
ASs6 cells, serum starved for 24 h, were induced with HGF (10 ng/ml) at 37° C. for 5 min. Where indicated, the cells were treated with PEGylated or non-PEGylated peptides before induction at 37° C. for 10 min (150 nM). Cells were washed with phosphate-buffered saline (PBS) and lysed in boiling sodium dodecyl sulfate (SDS)-sample buffer containing 100 mM dithiothreitol (DTT). Subsequently, lysates were subjected to Western blot analysis using antibodies against phosphorylated Mek and Erk (Cell signaling). The Mek and Erk loading control were performed on the same blot, stripped (62.5 mM Tris pH 6.8, 2% SDS, 0.8% DTT) and probed with the Mek and Erk antibodies. Blots were stained using the enhanced chemiluminescence system (Thermo Fisher Scientific).

[8] = 20 μg i.p. three times per week for three weeks, start 7 days after implantation

Row | Substance | lung metastasis at day twenty-two [1] | time of maximum of apoptosis [1] | first detection of apoptotic cells (cleaved Caspase 3) in tumor areas of the lungs ([1]; start three weeks after tumor cell injection) | Phosphorylation of Met and ERK [2] | metastasis formation (liver) [3, 8] | outgrowth of the primary tumor in the pancreas [3, 8] | metastasis (axillary lymph nodes, lungs) [4] | outgrowth of primary tumors [4] | metastasis and micro-metastasis in lung sections (PAS and H&E staining) [4] | average number of metastases ([5]; 5 animals) | macroscopic lung metastases per animal ([5]; 5 animals per group) | all experiments of the human orthotopic model repeated with 5mer peptides ([3]; 20 μg i.p. three times per week for 21 days) | HGF induced clustering / scattering of HT29 cells (FIG. 11) ([6]; HGF 10 ng/ml, peptide pre-incubation (Example 2)) | HGF induced Met-phosphorylation and Erk signaling [7] | HGF induced scattering of HT29 cells ([6]; PEGylated peptides 100 ng/ml prior to HGF 50 ng/ml (Example 5, FIG. 11))
1 | KEKWFENEWQGKNP [rat 14mer, rat CD44v6 14mer; control peptide in human and mouse models] | no metastasis could be detected anymore | eight days after the first injection | as early as three days after the first injection | had no influence on receptor activation and signal transduction | neither any influence on metastasis formation | nor on growth of the primary tumor | completely inhibited metastasis | not influenced by either treatment | neither metastasis nor micro-metastasis could be detected | 6 metastases per lung | all mice treated with the control peptide developed metastases |  |  |  | 
2 | NEWQG [rat 5mer, rat CD44v6 5mer peptide] |  |  |  | had no influence on receptor activation and signal transduction |  |  | completely inhibited metastasis | not influenced by either treatment | neither metastasis nor micro-metastasis could be detected |  |  | The same results as for the 14mer peptides were observed | lead to dissociation and migration of cells away from these cell cluster |  | 
3 | PEG-NAAAG [PEG-control peptide, pegylated control peptide, 3 essential aa replaced by alanines, reference compound] |  |  |  |  |  |  |  |  |  |  |  |  |  | showed no effect | not with PEGylated control peptides
